# Where a name gives a salt, the structure may show the parent alone.
# How the values were obtained:
# [1] = Stability of vancomycin hydrochloride powder in bottle (HPLC or cylinder plate analysis); details: for μg/mg vancomycin hydrochloride powder: Ex. 1, 10 g powder in HDPE bottle; for % Vancomycin B / % other impurities / % Monodechlorovancomycin: Ex. 1 powder in bottle; for Monodechlorovancomycin / Other Impurities / Vancomycin / Vancomycin B: Ex. 4, 15.38 g powder in bottle
# Description: Stability may be assessed by cylinder-plate assay (the cylinder plate assay depends on the diffusion of the antibiotic from a vertical cylinder through a solidified agar layer in a petri dish or plate. The growth of the specific microorganisms inoculated into the agar is prevented in a circular area or zone around the cylinder containing the solution of the antibiotic), HPLC or any other known testing method.
# The stability of vancomycin hydrochloride powder was evaluated. […] At various time points the powder in the bottle was analyzed for vancomycin hydrochloride, vancomycin B, other impurities, and monodechlorovancomycin by HPLC or cylinder plate analysis.
# Vancomycin hydrochloride was further investigated in stability studies. […] At each given time point, vancomycin hydrochloride, vancomycin B, other impurities, and monodechlorovancomycin were assayed by HPLC or total microbiological activity was assessed by cylinder plate analysis.
# [2] = 289 mL solution component + 15.38 g powder, shaken 30 seconds
# [3] = Ex. 4, 3 months accelerated and ambient
compound,measurement,setting,value
"CN[C@H](CC(C)C)C(=O)N[C@H]1C(=O)N[C@@H](CC(N)=O)C(=O)N[C@H]2C(=O)NC3C(=O)N[C@H](C(=O)N[C@H](C(=O)O)c4cc(O)cc(O)c4-c4cc3ccc4O)[C@H](O)c3ccc(c(Cl)c3)Oc3cc2cc(c3OC2OC(CO)C(O)C(O)C2OC2CC(C)(N)C(O)C(C)O2)Oc2ccc(cc2Cl)[C@H]1O (some centres unmarked) [vancomycin hydrochloride powder, vancomycin hydrochloride]",μg/mg vancomycin hydrochloride powder,"[1]; 40° C./75% RH, 0 months",1067 µg/mg
same,μg/mg vancomycin hydrochloride powder,"[1]; 40° C./75% RH, 1 month",1076 µg/mg
same,μg/mg vancomycin hydrochloride powder,"[1]; 40° C./75% RH, 2 months",1097 µg/mg
same,μg/mg vancomycin hydrochloride powder,"[1]; 40° C./75% RH, 3 months",1094 µg/mg
same,μg/mg vancomycin hydrochloride powder,"[1]; 40° C./75% RH, 6 months",1137 µg/mg
same,powder in bottle stability,"[1]; Ex. 1, ambient and accelerated conditions (25° C./60% RH and 40°/75% RH)",stable
same,% Vancomycin B,"[1]; 25° C./60% (RH), 0 months",93.03%
same,% other impurities,"[1]; 25° C./60% (RH), 0 months",<5.0% for all other
same,% Vancomycin B,"[1]; 25° C./60% (RH), 3 months",92.19%
same,% other impurities,"[1]; 25° C./60% (RH), 3 months",<5.0% for all other
same,% Vancomycin B,"[1]; 25° C./60% (RH), 6 months",92.04%
same,% other impurities,"[1]; 25° C./60% (RH), 6 months",<5.0% for all other
same,% Vancomycin B,"[1]; 25° C./60% (RH), 9 months",89.34%
same,% other impurities,"[1]; 25° C./60% (RH), 9 months",<5.0% for all other
same,% Vancomycin B,"[1]; 25° C./60% (RH), 12 months",88.85%
same,% other impurities,"[1]; 25° C./60% (RH), 12 months",<5.0% for all other
same,% Vancomycin B,"[1]; 25° C./60% (RH), 18 months",90.8%
same,% other impurities,"[1]; 25° C./60% (RH), 18 months",<5.0% for all other
same,% Vancomycin B,"[1]; 40° C./75% RH, 0 months",93.03%
same,% other impurities,"[1]; 40° C./75% RH, 0 months",<5.0% for all other
same,% Monodechlorovancomycin,"[1]; 40° C./75% RH, 1 month",1.0%
same,% Vancomycin B,"[1]; 40° C./75% RH, 1 month",91.87%
same,% other impurities,"[1]; 40° C./75% RH, 1 month",<5.0% for all other
same,% Monodechlorovancomycin,"[1]; 40° C./75% RH, 2 months",1.3%
same,% Vancomycin B,"[1]; 40° C./75% RH, 2 months",89.14%
same,% other impurities,"[1]; 40° C./75% RH, 2 months",<5.0% for all other
same,% Monodechlorovancomycin,"[1]; 40° C./75% RH, 3 months",1.6%
same,% Vancomycin B,"[1]; 40° C./75% RH, 3 months",88.22%
same,% other impurities,"[1]; 40° C./75% RH, 3 months",<5.0% for all other
same,% Vancomycin B,"[1]; 40° C./75% RH, 6 months",81.84%
same,% other impurities,"[1]; 40° C./75% RH, 6 months",<5.0% for all other
same,Monodechlorovancomycin,"[1]; 25° C./60% RH, 0 months",1.5%
same,Other Impurities,"[1]; 25° C./60% RH, 0 months",<5.0% for
same,Vancomycin,"[1]; 25° C./60% RH, 0 months","1,112 mcg/mg"
same,Vancomycin B,"[1]; 25° C./60% RH, 0 months",94.7%
same,Monodechlorovancomycin,"[1]; 25° C./60% RH, 3 months",1.1%
same,Other Impurities,"[1]; 25° C./60% RH, 3 months",<5.0% for
same,Vancomycin,"[1]; 25° C./60% RH, 3 months","1,070 mcg/mg"
same,Vancomycin B,"[1]; 25° C./60% RH, 3 months",91.8%
same,Monodechlorovancomycin,"[1]; 40° C./60% RH, 0 months",1.5%
same,Other Impurities,"[1]; 40° C./60% RH, 0 months",<5.0% for all
same,Vancomycin,"[1]; 40° C./60% RH, 0 months","1,112 mcg/mg"
same,Vancomycin B,"[1]; 40° C./60% RH, 0 months",94.7%
same,Monodechlorovancomycin,"[1]; 40° C./60% RH, 1 month",1.4%
same,Other Impurities,"[1]; 40° C./60% RH, 1 month",<5.0% for all
same,Vancomycin,"[1]; 40° C./60% RH, 1 month","1,095 mcg/mg"
same,Vancomycin B,"[1]; 40° C./60% RH, 1 month",91.3%
same,Monodechlorovancomycin,"[1]; 40° C./60% RH, 2 months",1.1%
same,Other Impurities,"[1]; 40° C./60% RH, 2 months",<5.0% for all
same,Vancomycin,"[1]; 40° C./60% RH, 2 months","1,108 mcg/mg"
same,Vancomycin B,"[1]; 40° C./60% RH, 2 months",90.8%
same,Monodechlorovancomycin,"[1]; 40° C./60% RH, 3 months",1.0%
same,Other Impurities,"[1]; 40° C./60% RH, 3 months",<5.0% for all
same,Vancomycin,"[1]; 40° C./60% RH, 3 months","1,095 mcg/mg"
same,Vancomycin B,"[1]; 40° C./60% RH, 3 months",87.6%
same,"Monodechlorovancomycin, not exceeded",[1]; [3],≤ 4.7%
same,"other impurities, not exceeded",[1]; [3],≤ 5.0%
same,powder stability,"[1]; Ex. 4, accelerated and ambient (25±2° C./60±5% RH) conditions",remained stable through 3 months under accelerated stability conditions and 3 months under ambient
same,dissolution of powder in the solution component,[2],easily dissolves in the solution component
